According to ChEMBL document CHEMBL1121625, “Crystal structures of calcium channel antagonists: 2,6-dimethyl-3,5-dicarbomethoxy-4-[2-nitro-, 3-cyano-, 4-(dimethylamino)-, and 2,3,4,5,6-pentafluorophenyl]-1,4-dihydropyridine” (1980):

Organism: Cavia porcellus
Assay: The compound was tested for inhibition of muscarinic responses in guinea pig ileal longitudinal smooth muscle
Type: functional, Muscle tissue

Row | Structure (SMILES) | ID50 [nM]
1 | COC(=O)C1=C(C)NC(C)=C(C(=O)OC)C1c1ccccc1[N+](=O)[O-] [NIFEDIPINE] | 5.1
2 | COC(=O)C1=C(C)NC(C)=C(C(=O)OC)C1c1ccc(N(C)C)cc1 | 50000
3 | COC(=O)C1=C(C)N=C(C)/C(=C(\O)OC)C1c1cccc(C#N)c1 (centres undefined) | 300
4 | COC(=O)C1=C(C)N=C(C)/C(=C(\O)OC)C1c1c(F)c(F)c(F)c(F)c1F (centres undefined) | 0.9
